From patent US20220204509A1, “PYRIMIDO FIVE-MEMBERED HETEROCYCLIC COMPOUND AND USE THEREOF AS MUTANT IDH2 INHIBITOR” (EPITAS BIOSCIENCES (SHANGHAI) CO., LTD., priority 2019, published 2022)

Tests used:
IDH2/R140Q [1] = biological target: T1, IDH2/R140Q (Homo sapiens, UniProt P48735, R140Q); test: Inhibition of mutant IDH2 activity at the cell level (extracellular 2-HG, U87MG overexpressing IDH2/R140Q); format: cell-based; conditions: U87MG overexpressing IDH2/R140Q; 2-HG in medium after 24 hours of culturing with compound; read-out: IC50
T1 sequence (P48735 40-452 R140Q): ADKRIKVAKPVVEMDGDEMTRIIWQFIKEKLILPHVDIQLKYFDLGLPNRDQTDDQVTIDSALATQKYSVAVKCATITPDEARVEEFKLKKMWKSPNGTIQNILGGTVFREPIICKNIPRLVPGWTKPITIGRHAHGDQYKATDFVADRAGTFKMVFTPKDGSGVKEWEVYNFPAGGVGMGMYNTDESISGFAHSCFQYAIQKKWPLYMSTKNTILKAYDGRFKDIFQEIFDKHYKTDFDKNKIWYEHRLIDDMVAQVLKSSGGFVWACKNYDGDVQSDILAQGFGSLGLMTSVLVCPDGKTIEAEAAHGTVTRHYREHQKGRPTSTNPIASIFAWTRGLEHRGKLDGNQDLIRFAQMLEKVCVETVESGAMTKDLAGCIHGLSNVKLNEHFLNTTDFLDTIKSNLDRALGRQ
Procedure: 2-hydroxyglutarate dehydrogenase (2HGDH) can reduce NAD+ to NADH in the presence of 2-HG. The latter can be quantitatively detected by diaphorase and its substrate Resazurin.
The glioma cells U87MG overexpressing IDH2/R140Q mutation were cultured in 1% sodium pyruvate high-sugar MEM, 10% FBS, and placed in a CO2 incubator (37° C., 5% CO2, 95% air) for cultivation.
The cells were digested with trypsin and seeded in a 96-well plate at a density of 1×10^4 with a medium of 200 μL and cultured in a 37° C. incubator overnight. The next day, the test compound was added to a final concentration of 0.1% for DMSO. […] The protein and other components in the medium that may interfere with the results were filtered, and the follow-up method was used to detect the content of 2-HG. 50 uL CellTiter-Glo (purchased from Promega) was added to the 96-well plate with the remaining 100 μL of medium to detect cell survival;
Extracellular 2-HG detecting system:
(1) 50 μL reaction system: reaction buffer (50 mM Tris pH7.5, 100 mM NaCl, 20 mM MgCl2, 0.05% BSA), in which the final concentration of NAD+ was 40 μM, the final concentration of 2HGDH was 20 nM, and the test sample was added to 5 μL of medium; the reaction solution was mixed and centrifuged, and the reaction was carried out for 1 hour at 25° C. in the dark;
Preparation of 2-HG standard curve: a 2-HG stock solution was diluted to 20 μM with reaction buffer, and a 2-fold gradient diluting was performed for a total of 6 points. Afterwards, the above-mentioned 2-HG was measured according to the extracellular 2-HG detecting system, and a standard curve was calculated and drawn.
Calculation of extracellular 2-HG content:
The fluorescence value obtained in the extracellular 2-HG detecting system was calculated using the 2-HG standard curve to calculate the content of 2-HG in the medium, and DMSO was used as a negative control to calculate the compound's inhibition against IDH2/R140Q mutation producing 2-HG activity.

IDH2/R140Q [2] = biological target: T1, IDH2/R140Q; test: Determination of the inhibitory activity of the compounds on IDH2/R140Q (NADPH reduction, resazurin/lipoamide dehydrogenase detection); format: biochemical; parameters: purchased Abcam ab198153; conditions: IDH2/R140Q inhibitory activity, read-out: IC50
Procedure: In this example, the inhibitory activity of a compound on IDH2/R140Q was determined by measuring the reduction of the cofactor NADPH. The compound was incubated with IDH2/R140Q and NADPH, and then the reaction was initiated by adding α-KG. After a certain time of reaction under linear conditions, lipoamide dehydrogenase and the corresponding substrate resazurin were added for detection. Lipoamide dehydrogenase terminated the IDH2/R140Q reaction bγ subtracting the available cofactor NADPH. It oxidized NADPH to NADP, and reduced resazurin to highly fluorescent resorufin. The production of resorufin was detected to quantify the amount of cofactor NADPH remaining after a specific reaction time.
Then 25 μL of a stop mixed solution (lipoamide dehydrogenase 36 μg/mL, resazurin 30 μM) prepared with the above reaction buffer was added to convert resazurin to resorufin to measure the remaining NADPH. After 10 minutes of incubation at 25° C., the fluorescence value was measured by Tecan […] […] The enzyme activity was measured at 10 concentrations for each compound, and multiple background holes without enzyme and full enzyme activity holes without compound were set up in the reaction. The concentration of dimethyl sulfoxide in the system was less than or equal to 2%. […] The multi-well plate in this example was purchased from Thermo Fisher Scientific, NADPH, α-KG, lipoamide dehydrogenase, and resazurin were purchased from Shenggong Bioengineering Co., Ltd., and IDH2/R140Q was purchased from Abcam (ab198153).

[3] = pre-incubated at 25° C. for 16 hours

Structure (SMILES) | IC50 (IDH2/R140Q [1]) [µM] | IC50 (IDH2/R140Q [2]; [3]) [µM] | IC50 (IDH2/R140Q [2]; cells marked (1 h)) [µM]
c1ccc(Nc2nc(-c3ccccc3)nc3[nH]ccc23)cc1 [Compound 19, N,2-diphenyl-7H-pyrrolo[2,3-d]pyrimidin-4-amine] | > 10 | > 10 | 
Cc1cc2c(NC3CCC3)nc(-c3ccccc3F)nc2[nH]1 [Compound 48, N-cyclobutyl-2-(2-fluorophenyl)-6-methyl-7H-pyrrolo[2,3-d]pyrimidin-4-amine] | < 0.1 | < 0.1 | 
CC(C)Nc1nc(-c2ccccc2)nc2[nH]c(C(F)(F)F)cc12 [Compound 49, N-isopropyl-2-phenyl-6-(trifluoromethyl)-7H-pyrrolo[2,3-d]pyrimidin-4-amine] | < 0.1 | < 0.1 | 
Cc1cc2c(Nc3cccc(F)c3)nc(-c3ccccc3)nc2[nH]1 [Compound 31, N-(3-fluorophenyl)-6-methyl-2-phenyl-7H-pyrrolo[2,3-d]pyrimidin-4-amine] | 1 to 10 | 1 to 10 | 
Cc1cc2c(NC(C)(C)C)nc(-c3ccccc3)nc2[nH]1 [Compound 27, N-(tert-butyl)-6-methyl-2-phenyl-7H-pyrrolo[2,3-d]pyrimidin-4-amine] |  | > 10 | 
Cc1cc2c(NC(C)C)nc(-c3cccnc3)nc2[nH]1 [Compound 17, N-isopropyl-6-methyl-2-(pyridin-3-yl)-7H-pyrrolo[2,3-d]pyrimidin-4-amine] | > 10 | > 10 | 
Cc1cc2c(NC3CC3)nc(-c3ccccc3C)nc2[nH]1 [Compound 43, N-cyclopropyl-6-methyl-2-(o-tolyl)-7H-pyrrolo[2,3-d]pyrimidin-4-amine] | 0.1 to 1 | 1 to 10 | 
CC(C)Nc1nc(-c2ccccc2)nc2[nH]ccc12 [Compound 32, N-isopropyl-2-phenyl-7H-pyrrolo[2,3-d]pyrimidin-4-amine] |  | > 10 | 
CC(C)n1cnc2c(Nc3ccnc(C(F)(F)F)c3)nc(-c3ccccn3)nc21 [Compound 10, 9-isopropyl-2-(pyridin-2-yl)-N-(2-(trifluoromethyl)pyridin-4-yl)-9H-purin-6-amine] | > 10 |  | > 10
Cc1cc2c(Nc3ccccc3)nc(-c3ccccc3)nc2[nH]1 [Compound 8, 6-methyl-N,2-diphenyl-7H-pyrrolo[2,3-d]pyrimidin-4-amine] | 1 to 10 | 0.1 to 1 | 
Cc1cc2c(NC3CC3)nc(-c3ccc4ccccc4c3)nc2[nH]1 [Compound 15, N-cyclopropyl-6-methyl-2-(naphthalene-2-yl)-7H-pyrrolo[2,3-d]pyrimidin-4-amine] |  | > 10 | 
Cc1cc2c(Nc3ccnc(F)c3)nc(-c3ccccc3)nc2[nH]1 [Compound 21, N-(2-fluoropyridin-4-yl)-6-methyl-2-phenyl-7H-pyrrolo[2,3-d]pyrimidin-4-amine] | 1 to 10 | > 10 | 
Cc1cc2c(NC(C)C)nc(-c3ccccc3)nc2[nH]1 [Compound 13, N-isopropyl-6-methyl-2-phenyl-7H-pyrrolo[2,3-d]pyrimidin-4-amine] | 0.1 to 1 | 0.1 to 1 | 
Cc1cc2c(NCc3ccccc3)nc(-c3ccccc3)nc2[nH]1 [Compound 30, N-benzyl-6-methyl-2-phenyl-7H-pyrrolo[2,3-d]pyrimidin-4-amine] |  | > 10 | 
Cc1cc2c(-c3ccccc3)nc(NC(C)C)nc2[nH]1 [Compound 40, N-isopropyl-6-methyl-4-phenyl-7H-pyrrolo[2,3-d]pyrimidin-2-amine] | > 10 | > 10 | 
Cc1cc2c(-c3ccccc3)nc(-c3ccccc3)nc2[nH]1 [Compound 26, 6-methyl-2,4-diphenyl-7H-pyrrolo[2,3-d]pyrimidine] |  | > 10 | 

Structure (SMILES) | IC50 (IDH2/R140Q [1]) [µM] | IC50 (IDH2/R140Q [2]; [3]) [µM] | IC50 (IDH2/R140Q [2]; cells marked (1 h)) [µM]
Cc1cc2c(Nc3ccnc(C(F)(F)F)c3)nc(-c3ccccc3)nc2[nH]1 [Compound 20, 6-methyl-2-phenyl-N-(2-(trifluoromethyl)pyridin-4-yl)-7H-pyrrolo[2,3-d]pyrimidin-4-amine] | 1 to 10 | 0.1 to 1 | 
Cc1nc2c(Nc3ccccc3)nc(-c3ccccc3)nc2[nH]1 [Compound 14, 8-methyl-N,2-diphenyl-9H-purin-6-amine] | > 10 |  | > 10
Cc1cc2c(Nc3cccc(Cl)c3)nc(-c3ccccc3)nc2[nH]1 [Compound 41, N-(3-chlorophenyl)-6-methyl-2-phenyl-7H-pyrrolo[2,3-d]pyrimidin-4-amine] | 1 to 10 | 1 to 10 | 
Cc1ccc(-c2nc(NC3CC3)c3cc(C)[nH]c3n2)cc1 [Compound 45, N-cyclopropyl-6-methyl-2-(p-tolyl)-7H-pyrrolo[2,3-d]pyrimidin-4-amine] | 1 to 10 | 1 to 10 | 
c1ccc(Nc2nc(-c3ccccc3)nc3[nH]cnc23)cc1 [Compound 6, N,2-diphenyl-9H-purin-6-amine] | > 10 |  | > 10
CC(C)n1cnc2c(Nc3ccnc(C(F)(F)F)c3)nc(-c3ccccc3)nc21 [Compound 3, 9-isopropyl-2-phenyl-N-(2-(trifluoromethyl)pyridin-4-yl)-9H-purin-6-amine] | > 10 |  | > 10
Cc1cc2c(Nc3ccccc3)nc(-c3ccccc3F)nc2[nH]1 [Compound 50, 2-(2-fluorophenyl)-6-methyl-N-phenyl-7H-pyrrolo[2,3-d]pyrimidin-4-amine] | 0.1 to 1 | 0.1 to 1 | 
Cc1cc2c(Nc3ccccc3)nc(Nc3ccccc3)nc2[nH]1 [Compound 22, 6-methyl-N2,N4-diphenyl-7H-pyrrolo[2,3-d]pyrimidine-2,4-diamine] | 1 to 10 | > 10 | 
COc1ccccc1Nc1nc(-c2ccccc2)nc2c1ncn2C(C)C [Compound 2, 9-isopropyl-N-(2-methoxyphenyl)-2-phenyl-9H-purin-6-amine] |  |  | > 10
CC(C)n1cnc2c(-c3ccccc3)nc(Nc3ccccc3)nc21 [Compound 12, 9-isopropyl-N,6-diphenyl-9H-purin-2-amine] | > 10 |  | > 10
Cc1cc2c(NC(C)C)nc(-c3ccccn3)nc2[nH]1 [Compound 16, N-isopropyl-6-methyl-2-(pyridin-2-yl)-7H-pyrrolo[2,3-d]pyrimidin-4-amine] | 1 to 10 | > 10 | 
CC(C)n1cnc2c(Nc3ccccc3)nc(-c3ccccc3)nc21 [Compound 1, 9-isopropyl-N,2-diphenyl-9H-purin-6-amine] |  |  | > 10
Cn1ccc2c(Nc3ccccc3)nc(-c3ccccc3)nc21 [Compound 11, 7-methyl-N,2-diphenyl-7H-pyrrolo[2,3-d]pyrimidin-4-amine] |  |  | > 10
Cc1cc2c(NCC(C)(C)O)nc(-c3ccccc3)nc2[nH]1 [Compound 35, 2-methyl-1-((6-methyl-2-phenyl-7H-pyrrolo[2,3-d]pyrimidin-4-yl)amino)propan-2-ol] |  | > 10 | 
CC(C)Nc1nc(-c2ccccc2)nc2[nH]c(Br)cc12 [Compound 33, 6-bromo-N-isopropyl-2-phenyl-7H-pyrrolo[2,3-d]pyrimidin-4-amine] |  | > 10 | 
